Data taken from patent US7951827B2, “Synthesis and antiprotozoal activity of dicationic 3,5-diphenylisoxazoles” (The University of North Carolina at Chapel Hill, priority 2005, dated 2011).
Structures can show the parent of a compound that is named as a salt. Where two headings read alike, the source gives them in different places. Values belong to the compound of their own block, whether it stands above or below them.

Columns and labels:
[1] = tested on: Trypanosoma brucei brucei; experiment: In vitro antiprotozoal activity against Trypanosoma brucei brucei; assay type: cell-based
Procedure: (§1) In vitro antiprotozoal activities, see Ismail, M. A., et al., J. Med. Chem. 46, 4761-4769 (2003), and cytotoxicity were measured following established protocols, see Balz, T., et al., EMBO J., 4, 1273-1277 (1985); Räz. B., et al., Acta Trop., 68:139-147 (1997); and Sperandeo, N. R. et al., Chem. Biochem., 4, 69-73 (2003). […] Other positive controls employed were melarsoprol (against T. brucei), chloroquine, and artemisinin (against P. falciparum), and podophyllotoxin (against VERO cells).

[2] = Cytotoxicity to VERO cells; assay type: cell-based, African green monkey (Cercopithecus Aethiops); details: African green monkey (Cercopithecus aethiops), IC50 (μM) Cytotoxicity VERO cells
Procedure: as §1

VERO cells = experiment: Cytotoxicity to VERO cells; assay type: cell-based, African green monkey (Cercopithecus Aethiops)
Procedure: as §1

Plasmodium falciparum = experiment: In vitro antiprotozoal activity against Plasmodium falciparum; assay type: cell-based
Procedure: as §1

[3] = Trypanosoma brucei, Table 1, read-out: IC50 (μM) Trypanosoma brucei brucei
[4] = Trypanosoma brucei, read-out: IC50 values against T. brucei brucei
[5] = Chlorocebus sabaeus, Vero, read-out: IC50 value against VERO cells
[6] = Plasmodium falciparum, Table 1, read-out: IC50 (μM) Plasmodium falciparum
[7] = Plasmodium falciparum, read-out: antiplasmodial IC50 values (P. falciparum)
[8] = Table 1, read-out: IC50 (μM) Trypanosoma brucei brucei
[9] = Table 1, read-out: IC50 (μM) Cytotoxicity VERO cells
[10] = Table 1, read-out: IC50 (μM) Plasmodium falciparum

SMILES: Cl.Cl.N=C(N)c1cccc(-c2cc(-c3cccc(C(=N)N)c3)on2)c1 [Compound 32, 3,5-Bis(3-amidinophenyl)isoxazole dihydrochloride]
IC50 [1, 3]: 0.029 µM | IC50 [1, 4]: 0.029 µM | IC50 [2]: 153 µM | toxicity (VERO cells) in words (VERO cells): low toxicity | IC50 (VERO cells; [5]): > 100 µM | IC50 (Plasmodium falciparum; [6]): 0.0092 µM | IC50 (Plasmodium falciparum; [7]): 0.008 to 0.03 µM | melting point: 365 to 367 °C

SMILES: c1cc(C2=NCCN2)cc(-c2cc(-c3ccc(C4=NCCN4)cc3)no2)c1 [Compound 24, 3-[4-(2-Imidazolinyl)phenyl]-5-[3-(2-imidazolinyl)phenyl]isoxazole dihydrochloride]
IC50 [1, 8]: 0.974 µM | IC50 (VERO cells; [9]): 30.2 µM | IC50 (Plasmodium falciparum; [10]): 0.077 µM

SMILES: Cl.Cl.N=C(N)c1ccc(-c2cc(-c3ccc(C(=N)N)cc3[N+](=O)[O-])on2)cc1 [Compound 6, 5-(4-Amidino-2-nitrophenyl)-3-(4-amidinophenyl)isoxazole dihydrochloride]
IC50 [1, 3]: 0.0139 µM | IC50 [2]: 15.8 µM | IC50 (Plasmodium falciparum; [6]): 0.0149 µM | IC50 (Plasmodium falciparum; [7]): 0.008 to 0.03 µM | melting point: > 350 °C (dec.)

SMILES: c1cc(C2=NCCN2)cc(-c2cc(-c3cccc(C4=NCCN4)c3)on2)c1 [Compound 34, 3,5-Bis[3-(2-imidazolinyl)phenyl]isoxazole dihydrochloride]
IC50 [1, 8]: 18.5 µM | IC50 (VERO cells; [9]): 26.2 µM | IC50 (Plasmodium falciparum; [10]): 0.227 µM

SMILES: Cl.Cl.N=C(N)c1cccc(-c2cc(-c3cc(C(=N)N)ccc3[N+](=O)[O-])on2)c1 [Compound 35, 5-(5-Amidino-2-nitrophenyl)-3-(3-amidinophenyl)isoxazole dihydrochloride]
IC50 [1, 3]: 1.63 µM | IC50 [2]: 9.8 µM | IC50 (Plasmodium falciparum; [6]): 0.334 µM | melting point: 222 °C (dec.)

SMILES: COc1ccc(C(=N)N)cc1-c1cc(-c2ccc(C(=N)N)cc2)on1.Cl.Cl [Compound 21, 3-(5-Amidino-2-methoxyphenyl)-5-(4-amidinophenyl)isoxazole dihydrochloride]
IC50 [1, 3]: 0.0118 µM | IC50 [2]: 213 µM | IC50 (VERO cells; [5]): > 100 µM | IC50 (Plasmodium falciparum; [6]): 0.0026 µM | melting point: 272 to 275 °C

SMILES: COc1ccc(C(=N)N)cc1-c1cc(-c2ccc(C(=N)N)cc2)no1.Cl.Cl [Compound 26, 5-(5-Amidino-2-methoxyphenyl)-3-(4-amidinophenyl)isoxazole dihydrochloride]
IC50 [1, 3]: 0.0043 µM | IC50 [1, 4]: 0.0035 to 0.009 µM | IC50 [2]: 52.8 µM | IC50 (Plasmodium falciparum; [6]): 0.0116 µM | IC50 (Plasmodium falciparum; [7]): 0.008 to 0.03 µM | melting point: 240 to 242 °C

SMILES: c1cc(-c2cc(-c3ccc(C4=NCCN4)cc3)on2)ccc1C1=NCCN1 [Compound 5, 3,5-Bis[4-(2-imidazolinyl)phenyl]isoxazole dihydrochloride]
IC50 [1, 8]: 0.0872 µM | IC50 (VERO cells): 1.81 µM | IC50 (Plasmodium falciparum; [10]): 0.0041 µM

SMILES: c1cc(C2=NCCN2)cc(-c2cc(-c3ccc(C4=NCCN4)cc3)on2)c1 [Compound 15, 3-[3-(2-Imidazolinyl)phenyl]-5-[4-(2-imidazolinyl)phenyl]isoxazole dihydrochloride]
IC50 [1, 8]: 1.55 µM | IC50 (VERO cells; [9]): 65 µM | IC50 (Plasmodium falciparum; [10]): 0.0512 µM

SMILES: COc1ccc(C2=NCCN2)cc1-c1cc(-c2cc(C3=NCCN3)ccc2OC)on1 [Compound 43, 3,5-Bis[5-(2-imidazolinyl)-2-methoxyphenyl]isoxazole dihydrochloride]
IC50 [1, 8]: 0.0448 µM | IC50 (VERO cells): 164 µM | IC50 (Plasmodium falciparum; [10]): 0.0114 µM

SMILES: COc1cc(C(=N)N)ccc1-c1cc(-c2ccc(C(=N)N)cc2OC)on1 [Compound 12, 3,5-Bis(4-amidino-2-methoxyphenyl)isoxazole dihydrochloride]
IC50 [1, 3]: 0.013 µM | IC50 [2]: 84.8 µM | IC50 (VERO cells; [5]): > 100 µM | IC50 (Plasmodium falciparum; [6]): 0.0061 µM | IC50 (Plasmodium falciparum; [7]): < 0.008 µM

The remaining compounds from weak to strong by IC50 [1, 3], led by results:

IC50 [1, 3]: 4.98 µM | IC50 (Plasmodium falciparum; [6]): 0.0431 µM | melting point: 260 °C (dec.)
SMILES: CC(C)NC(=N)c1cccc(-c2cc(-c3cccc(C(=N)NC(C)C)c3)on2)c1.Cl.Cl [Compound 33, 3,5-Bis[3-(N-isopropyl)amidinophenyl]isoxazole dihydrochloride]
IC50 [2]: 180 µM | toxicity (VERO cells) in words (VERO cells): very nontoxic | IC50 (VERO cells; [5]): > 100 µM

IC50 [1, 3]: 0.316 µM | IC50 (Plasmodium falciparum; [6]): 0.0347 µM | melting point: 340 to 343 °C (dec.)
SMILES: CC(C)NC(=N)c1ccc(-c2cc(-c3cccc(C(=N)NC(C)C)c3)on2)cc1.Cl.Cl [Compound 23, 3-[4-(N-Isopropyl)amidinophenyl]-5-[3-(N-isopropyl)amidinophenyl]-isoxazole dihydrochloride]
IC50 [2]: 186 µM | toxicity (VERO cells) in words (VERO cells): very nontoxic | IC50 (VERO cells; [5]): > 100 µM

IC50 [1, 3]: 0.196 µM | IC50 (Plasmodium falciparum; [6]): 0.0066 µM | IC50 (Plasmodium falciparum; [7]): < 0.008 µM
SMILES: CC(C)NC(=N)c1ccc(-c2cc(-c3ccc(C(=N)NC(C)C)cc3)on2)cc1.Cl.Cl [Compound 4, 3,5-Bis[4-(N-isopropyl)amidinophenyl]isoxazole dihydrochloride]
IC50 [2]: 176 µM | toxicity (VERO cells) in words (VERO cells): very nontoxic | IC50 (VERO cells; [5]): > 100 µM | selectivities against P. falciparum over T. brucei brucei (Plasmodium falciparum): 30 fold

IC50 [1, 3]: 0.0342 µM | IC50 (Plasmodium falciparum; [6]): 0.0195 µM | IC50 (Plasmodium falciparum; [7]): 0.008 to 0.03 µM | melting point: 260 °C (dec.)
SMILES: COc1ccc(C(=N)N)cc1-c1cc(-c2ccc(C(=N)N)cc2[N+](=O)[O-])no1.Cl.Cl [Compound 30, 5-(5-Amidino-2-methoxyphenyl)-3-(4-amidino-2-nitrophenyl)isoxazole dihydrochloride]
IC50 [2]: 116 µM | IC50 (VERO cells; [5]): > 100 µM

IC50 [1, 3]: 0.027 µM | IC50 (Plasmodium falciparum; [6]): 0.0174 µM | IC50 (Plasmodium falciparum; [7]): 0.008 to 0.03 µM | melting point: 210 °C (dec.)
SMILES: COc1ccc(C(=N)N)cc1-c1cc(-c2cccc(C(=N)N)c2)on1.Cl.Cl [Compound 40, 3-(5-Amidino-2-methoxyphenyl)-5-(3-amidinophenyl)isoxazole dihydrochloride]
IC50 [2]: 215 µM

IC50 [1, 3]: 0.0209 µM | IC50 (Plasmodium falciparum; [6]): 0.0035 µM | IC50 (Plasmodium falciparum; [7]): < 0.008 µM | melting point: 356 to 358 °C (dec.)
SMILES: Cl.Cl.N=C(N)c1ccc(-c2cc(-c3cc(C(=N)N)ccc3Cl)on2)cc1 [Compound 25, 5-(5-Amidino-2-chlorophenyl)-3-(4-amidinophenyl)isoxazole dihydrochloride]
IC50 [2]: 71.4 µM

IC50 [1, 3]: 0.0164 µM | IC50 (Plasmodium falciparum; [6]): 0.0663 µM | melting point: 335 to 337 °C (dec.)
SMILES: COc1cc(C(=N)N)ccc1-c1cc(-c2ccc(C(=N)N)cc2)on1.Cl.Cl [Compound 11, 3-(4-Amidino-2-methoxyphenyl)-5-(4-amidinophenyl)isoxazole dihydrochloride]
IC50 [2]: 92.6 µM | IC50 (VERO cells; [5]): > 100 µM

IC50 [1, 3]: 0.0155 µM | IC50 (Plasmodium falciparum; [6]): 0.0079 µM | IC50 (Plasmodium falciparum; [7]): < 0.008 µM | melting point: > 350 °C (dec.)
SMILES: Cl.Cl.N=C(N)c1ccc(-c2cc(-c3ccc(C(=N)N)cc3Cl)on2)cc1 [Compound 7, 5-(4-Amidino-2-chlorophenyl)-3-(4-amidinophenyl)isoxazole dihydrochloride]
IC50 [2]: 41 µM

IC50 [1, 3]: 0.0116 µM | IC50 (Plasmodium falciparum; [6]): 0.0141 µM | IC50 (Plasmodium falciparum; [7]): 0.008 to 0.03 µM | melting point: 210 °C (dec.)
SMILES: Cl.Cl.N=C(N)c1cccc(-c2cc(-c3ccc(C(=N)N)cc3Cl)no2)c1 [Compound 28, 3-(4-Amidino-2-chlorophenyl)-5-(3-amidinophenyl)isoxazole dihydrochloride]
IC50 [2]: 87.4 µM

IC50 [1, 3]: 0.0106 µM | IC50 (Plasmodium falciparum; [6]): 0.006 µM | IC50 (Plasmodium falciparum; [7]): < 0.008 µM
SMILES: COc1cc(C(=N)N)ccc1-c1cc(-c2ccc(C(=N)N)cc2)no1 [Compound 8, 5-(4-Amidino-2-methoxyphenyl)-3-(4-amidinophenyl)isoxazole dihydrochloride]
IC50 [2]: 122 µM | IC50 (VERO cells; [5]): > 100 µM

IC50 [1, 3]: 0.009 µM | IC50 [1, 4]: 0.0035 to 0.009 µM | IC50 (Plasmodium falciparum; [6]): 0.0259 µM | IC50 (Plasmodium falciparum; [7]): 0.008 to 0.03 µM | melting point: 225 °C
SMILES: Cl.Cl.N=C(N)c1cccc(-c2cc(-c3ccc(C(=N)N)cc3[N+](=O)[O-])on2)c1 [Compound 16, 5-(4-Amidino-2-nitrophenyl)-3-(3-amidinophenyl)isoxazole dihydrochloride]
IC50 [2]: 48 µM

IC50 [1, 3]: 0.0074 µM | IC50 [1, 4]: 0.0035 to 0.009 µM | IC50 (Plasmodium falciparum; [6]): 0.0192 µM | IC50 (Plasmodium falciparum; [7]): 0.008 to 0.03 µM | melting point: 240 °C (dec.)
SMILES: COc1ccc(C(=N)N)cc1-c1cc(-c2cccc(C(=N)N)c2)no1.Cl.Cl [Compound 37, 5-(5-Amidino-2-methoxyphenyl)-3-(3-amidinophenyl)isoxazole dihydrochloride]
IC50 [2]: 124 µM | IC50 (VERO cells; [5]): > 100 µM

IC50 [1, 3]: 0.0065 µM | IC50 [1, 4]: 0.0065 µM | IC50 (Plasmodium falciparum; [6]): 0.0035 µM | melting point: 241 to 246 °C
SMILES: COc1cc(C(=N)N)ccc1-c1cc(-c2cccc(C(=N)N)c2)no1.Cl.Cl [Compound 18, 5-(4-Amidino-2-methoxyphenyl)-3-(3-amidinophenyl)isoxazole dihydrochloride]
IC50 [2]: 177 µM | IC50 (VERO cells; [5]): > 100 µM

IC50 [1, 3]: 0.0063 µM | IC50 [1, 4]: 0.0035 to 0.009 µM | IC50 (Plasmodium falciparum; [6]): 0.0187 µM | IC50 (Plasmodium falciparum; [7]): 0.008 to 0.03 µM | melting point: 242 to 245 °C
SMILES: Cl.Cl.N=C(N)c1cccc(-c2cc(-c3ccc(C(=N)N)cc3Cl)on2)c1 [Compound 17, 5-(4-Amidino-2-chlorophenyl)-3-(3-amidinophenyl)isoxazole dihydrochloride]
IC50 [2]: 82.7 µM

IC50 [1, 3]: 0.0042 µM | IC50 [1, 4]: 0.0035 to 0.009 µM | IC50 (Plasmodium falciparum; [6]): 0.0211 µM | IC50 (Plasmodium falciparum; [7]): 0.008 to 0.03 µM | melting point: 240 °C (dec.)
SMILES: COc1ccc(C(=N)N)cc1-c1cc(-c2cc(C(=N)N)ccc2OC)on1.Cl.Cl [Compound 41, 3,5-Bis(5-amidino-2-methoxyphenyl)isoxazole dihydrochloride]
IC50 [2]: 79.9 µM
